Test results as given in patent US8114814B2, “Herbicide composition” (Kumiai Chemical Industry Co., Ltd., priority 2007, dated 2012).

Legend:
Conditions in all cases: 28th day of the treatment
[1] = test system: Transplanted Rice; assay: Test for herbicidal effect by paddy soil treatment: phytotoxicity to transplanted rice; type: in vivo, rice (variety: Kinnanpuu)
From the text: A paddy soil was filled in a plastic pot of 100 cm^2 and subjected to puddling. Thereinto were sowed seeds of Echinochloa oryzicola Vasing, Monochoria vaginalis (Burm. f.) Kunth, Schoenoplectus juncoides (Roxb.) Paila or Cyperus serotinus Rottb., after which water was filled at a depth of 3 cm. Each pot was placed in a greenhouse for raising, At a timing when the Echinochloa oryzicola Vasing reached about a two-leaf stage, a seedling of two-leaf stage rice (variety: Kinnanpuu) was transplanted into each pot at a depth of 2 cm. […] Then, the pot was allowed to stand for raising. The herbicidal effect of the wettable powder was examined at the 28th day of the treatment (the dropping of the dilution) in accordance with the standard of Table 4.

[2] = test system: Cyperus serotinus Rottb.; assay: Test for herbicidal effect by paddy soil treatment; type: in vivo
From the text: (§1) A paddy soil was filled in a plastic pot of 100 cm^2 and subjected to puddling. Thereinto were sowed seeds of Echinochloa oryzicola Vasing, Monochoria vaginalis (Burm. f.) Kunth, Schoenoplectus juncoides (Roxb.) Paila or Cyperus serotinus Rottb., after which water was filled at a depth of 3 cm. Each pot was placed in a greenhouse for raising, At a timing when the Echinochloa oryzicola Vasing reached about a two-leaf stage, a seedling of two-leaf stage rice (variety: Kinnanpuu) was transplanted into each pot at a depth of 2 cm. A wettable powder prepared in accordance with Formulation Example 2 was diluted with water based on the total sum of the active ingredients, and the dilution was dropped on the water surface of the pot. Then, the pot was allowed to stand for raising. The herbicidal effect of the wettable powder was examined at the 28th day of the treatment (the dropping of the dilution) in accordance with the standard of Table 4.

[3] = test system: Echinochloa oryzicola Vasing; assay: Test for herbicidal effect by paddy soil treatment; type: in vivo
From the text: as §1

[4] = test system: Monochoria vaginalis (Burm. f.) Kunth; assay: Test for herbicidal effect by paddy soil treatment; type: in vivo
From the text: as §1

[5] = test system: Schoenoplectus juncoides (Roxb.) Paila; assay: Test for herbicidal effect by paddy soil treatment; type: in vivo
From the text: as §1

[6] = test system: Direct seeding rice; assay: Test for herbicidal effect by paddy foliage treatment: phytotoxicity to direct seeding rice; type: in vivo, rice (variety: Akebono)
From the text: A paddy soil was filled in a plastic pot of 100 cm^2 and subjected to puddling. Thereinto were sowed seeds of rice (variety: Akebono), Echinochloa crusgalli (L.) P. Beauv. Var. crus-galli, Leptochloa chinensis Nees., Monochoria vaginalis (Burm. f.) Kunth, or Fimbristylis miliacea Vahl, after which each plant was raised in a greenhouse in a drained treatment until the Echinochloa crus-galli (L.) P. Beauv. Var. crus-galli reached a two-leaf stage. […] 3 days after the spraying, water was filled at a depth of 3 cm. Then, the pot was allowed to stand for raising. The herbicidal effect of the wettable powder was examined at the 28th day of the treatment (the spraying of the dilution) in accordance with the standard of Table 4.

[7] = test system: Echinochloa crusgalli (L.) P. Beauv. Var. crus-galli; assay: Test for herbicidal effect by paddy foliage treatment; type: in vivo
From the text: (§2) A paddy soil was filled in a plastic pot of 100 cm^2 and subjected to puddling. Thereinto were sowed seeds of rice (variety: Akebono), Echinochloa crusgalli (L.) P. Beauv. Var. crus-galli, Leptochloa chinensis Nees., Monochoria vaginalis (Burm. f.) Kunth, or Fimbristylis miliacea Vahl, after which each plant was raised in a greenhouse in a drained treatment until the Echinochloa crus-galli (L.) P. Beauv. Var. crus-galli reached a two-leaf stage. At that timing, a wettable powder prepared in accordance with Formulation Example 2 was diluted with water based on the total sum of the active ingredients, and the dilution was sprayed at a rate of 20 liters/10 ares using a micro-sprayer (a product of OLYMPOS). 3 days after the spraying, water was filled at a depth of 3 cm. Then, the pot was allowed to stand for raising. The herbicidal effect of the wettable powder was examined at the 28th day of the treatment (the spraying of the dilution) in accordance with the standard of Table 4.

[8] = test system: Fimbristylis miliacea Vahl; assay: as above; type: in vivo
From the text: as §2

[9] = test system: Leptochloa chinensis Nees.; assay: as above; type: in vivo
From the text: as §2

[10] = test system: Monochoria vaginalis (Burm. f.) Kunth; assay: as above; type: in vivo
From the text: as §2

SMILES | phytotoxicity index, Transplanted Rice ([1]; Dose 20 g a.i./10a) | herbicidal effect index, Cyperus serotinus ([2]; Dose 20 g a.i./10a) | herbicidal effect index, Echinochloa oryzicola ([3]; Dose 20 g a.i./10a) | herbicidal effect index, Monochoria vaginalis ([4]; Dose 20 g a.i./10a) | herbicidal effect index, Schoenoplectus juncoides ([5]; Dose 20 g a.i./10a) | phytotoxicity index, Direct seeding rice ([6]; Dose 20 g a.i./10a) | herbicidal effect index, Echinochloa crus-galli ([7]; Dose 20 g a.i./10a) | herbicidal effect index, Fimbristylis miliacea ([8]; Dose 20 g a.i./10a) | herbicidal effect index, Leptochloa chinensis ([9]; Dose 20 g a.i./10a) | herbicidal effect index, Monochoria vaginalis ([10]; Dose 20 g a.i./10a) | further results
CC1(C)CC(S(=O)(=O)Cc2c(OCC(F)(F)F)ccc(Cl)c2Cl)=NO1 [Compound 31] | 1 (Herbicidal effect or phytotoxicity of 10% to less than 20%) | 2 (Herbicidal effect or phytotoxicity of 20% to less than 30%) | 8 (Herbicidal effect or phytotoxicity of 80% to less than 90%) | 5 (Herbicidal effect or phytotoxicity of 50% to less than 60%) | 4 (Herbicidal effect or phytotoxicity of 40% to less than 50%) | 2 (Herbicidal effect or phytotoxicity of 20% to less than 30%) | 6 (Herbicidal effect or phytotoxicity of 60% to less than 70%) | 2 (Herbicidal effect or phytotoxicity of 20% to less than 30%) | 3 (Herbicidal effect or phytotoxicity of 30% to less than 40%) | 3 (Herbicidal effect or phytotoxicity of 30% to less than 40%) | 
C#CCOc1ccc(Cl)c(Cl)c1CS(=O)(=O)C1=NOC(C)(C)C1 [Compound 33] |  |  |  |  |  | 1 (Herbicidal effect or phytotoxicity of 10% to less than 20%) | 7 (Herbicidal effect or phytotoxicity of 70% to less than 80%) | 3 (Herbicidal effect or phytotoxicity of 30% to less than 40%) | 6 (Herbicidal effect or phytotoxicity of 60% to less than 70%) | 6 (Herbicidal effect or phytotoxicity of 60% to less than 70%) | 
CCOC(=O)c1cnn(C)c1S(=O)(=O)NC(=O)Nc1nc(OC)cc(OC)n1 [Pyrazosulfuron-ethyl, reference compound] |  |  |  |  |  |  |  |  |  |  | phytotoxicity index, Direct seeding rice ([6]; Dose 3 g a.i./10a): 1 (Herbicidal effect or phytotoxicity of 10% to less than 20%); herbicidal effect index, Echinochloa crus-galli ([7]; Dose 3 g a.i./10a): 2 (Herbicidal effect or phytotoxicity of 20% to less than 30%); herbicidal effect index, Fimbristylis miliacea ([8]; Dose 3 g a.i./10a): 8 (Herbicidal effect or phytotoxicity of 80% to less than 90%); herbicidal effect index, Leptochloa chinensis ([9]; Dose 3 g a.i./10a): 0 (Herbicidal effect (growth inhibition) or phytotoxicity of less that 10%); herbicidal effect index, Monochoria vaginalis ([10]; Dose 3 g a.i./10a): 6 (Herbicidal effect or phytotoxicity of 60% to less than 70%)
CC1(C)CC(S(=O)(=O)Cc2c(OCC(F)F)ccc(Cl)c2Cl)=NO1 [Compound 34] |  |  |  |  |  | 2 (Herbicidal effect or phytotoxicity of 20% to less than 30%) | 5 (Herbicidal effect or phytotoxicity of 50% to less than 60%) | 4 (Herbicidal effect or phytotoxicity of 40% to less than 50%) | 3 (Herbicidal effect or phytotoxicity of 30% to less than 40%) | 5 (Herbicidal effect or phytotoxicity of 50% to less than 60%) | 
COC(=O)c1ccccc1CS(=O)(=O)NC(=O)Nc1nc(OC)cc(OC)n1 [Bensulfuron-methyl, reference compound] |  |  |  |  |  |  |  |  |  |  | herbicidal effect index, Cyperus serotinus ([2]; Dose 1 g a.i./10a): 7 (Herbicidal effect or phytotoxicity of 70% to less than 80%); herbicidal effect index, Echinochloa oryzicola ([3]; Dose 1 g a.i./10a): 3 (Herbicidal effect or phytotoxicity of 30% to less than 40%); herbicidal effect index, Monochoria vaginalis ([4]; Dose 1 g a.i./10a): 8 (Herbicidal effect or phytotoxicity of 80% to less than 90%); herbicidal effect index, Schoenoplectus juncoides ([5]; Dose 1 g a.i./10a): 7 (Herbicidal effect or phytotoxicity of 70% to less than 80%)
Cc1ccc(NC(=O)NC(C)(C)c2ccccc2)cc1 [Daimuron, reference compound] |  |  |  |  |  |  |  |  |  |  | herbicidal effect index, Cyperus serotinus ([2]; Dose 150 g a.i./10a): 3 (Herbicidal effect or phytotoxicity of 30% to less than 40%); herbicidal effect index, Echinochloa oryzicola ([3]; Dose 150 g a.i./10a): 0 (Herbicidal effect (growth inhibition) or phytotoxicity of less that 10%); herbicidal effect index, Monochoria vaginalis ([4]; Dose 150 g a.i./10a): 2 (Herbicidal effect or phytotoxicity of 20% to less than 30%); herbicidal effect index, Schoenoplectus juncoides ([5]; Dose 150 g a.i./10a): 7 (Herbicidal effect or phytotoxicity of 70% to less than 80%)
COCc1cccc(C(O)c2nc(OC)cc(OC)n2)c1NS(=O)(=O)C(F)F (stereo not shown) [Pyrimisulfan, reference compound] |  |  |  |  |  |  |  |  |  |  | phytotoxicity index, Transplanted Rice ([1]; Dose 1 g a.i./10a): 1 (Herbicidal effect or phytotoxicity of 10% to less than 20%); herbicidal effect index, Cyperus serotinus ([2]; Dose 1 g a.i./10a): 9 (Herbicidal effect or phytotoxicity of 90% to less than 100%); herbicidal effect index, Echinochloa oryzicola ([3]; Dose 1 g a.i./10a): 6 (Herbicidal effect or phytotoxicity of 60% to less than 70%); herbicidal effect index, Monochoria vaginalis ([4]; Dose 1 g a.i./10a): 6 (Herbicidal effect or phytotoxicity of 60% to less than 70%); herbicidal effect index, Schoenoplectus juncoides ([5]; Dose 1 g a.i./10a): 9 (Herbicidal effect or phytotoxicity of 90% to less than 100%)
CCOc1cc(Cl)c(CS(=O)(=O)C2=NOC(C)(C)C2)cc1Cl [Compound 54] | 1 (Herbicidal effect or phytotoxicity of 10% to less than 20%) | 1 (Herbicidal effect or phytotoxicity of 10% to less than 20%) | 8 (Herbicidal effect or phytotoxicity of 80% to less than 90%) | 5 (Herbicidal effect or phytotoxicity of 50% to less than 60%) | 2 (Herbicidal effect or phytotoxicity of 20% to less than 30%) | 2 (Herbicidal effect or phytotoxicity of 20% to less than 30%) | 7 (Herbicidal effect or phytotoxicity of 70% to less than 80%) | 2 (Herbicidal effect or phytotoxicity of 20% to less than 30%) | 6 (Herbicidal effect or phytotoxicity of 60% to less than 70%) | 4 (Herbicidal effect or phytotoxicity of 40% to less than 50%) | 
CCC(CC)Nc1c([N+](=O)[O-])cc(C)c(C)c1[N+](=O)[O-] [Pendimethalin, reference compound] |  |  |  |  |  |  |  |  |  |  | phytotoxicity index, Direct seeding rice ([6]; Dose 80 g a.i./10a): 1 (Herbicidal effect or phytotoxicity of 10% to less than 20%); herbicidal effect index, Echinochloa crus-galli ([7]; Dose 80 g a.i./10a): 5 (Herbicidal effect or phytotoxicity of 50% to less than 60%); herbicidal effect index, Fimbristylis miliacea ([8]; Dose 80 g a.i./10a): 3 (Herbicidal effect or phytotoxicity of 30% to less than 40%); herbicidal effect index, Leptochloa chinensis ([9]; Dose 80 g a.i./10a): 5 (Herbicidal effect or phytotoxicity of 50% to less than 60%); herbicidal effect index, Monochoria vaginalis ([10]; Dose 80 g a.i./10a): 2 (Herbicidal effect or phytotoxicity of 20% to less than 30%)
CC1(C)CC(SCc2ccccc2)=NO1 [Compound 1] | 1 (Herbicidal effect or phytotoxicity of 10% to less than 20%) | 2 (Herbicidal effect or phytotoxicity of 20% to less than 30%) | 8 (Herbicidal effect or phytotoxicity of 80% to less than 90%) | 4 (Herbicidal effect or phytotoxicity of 40% to less than 50%) | 6 (Herbicidal effect or phytotoxicity of 60% to less than 70%) |  |  |  |  |  | 
